Measurements published in ChEMBL document CHEMBL1121693 (1981).

What was measured:
Format in all cases: functional
[1] = species on record: Mus musculus
[2] = species on record: Mus musculus; remark: listed apart in the source
[3] = species on record: Mus musculus; remark: listed apart in the source

In the case of `c1ccc(C2(N3CCCCC3)CCCCC2)cc1` [PHENCYCLIDINE], the No. of mice [1] is reported as 4, the No. of mice [2] is reported as 0 and the No. of mice [3] is reported as 0.
